The values below come from patent US9687551B2, “Compositions comprising lecithin oils and NSAIDs for protecting the gastrointestinal tract and providing enhanced therapeutic activity” (The Board of Regents of the University of Texas System, priority 2000, dated 2017).

For series [1], the system named is PGI2 to TXA2 ratio of carotid artery. Briefly: PGI2 to TXA2 ratio in affected carotid arteries. The format is in vivo, rabbit. Particulars: 2.5 mg/kg aspirin; FIG. 14C. As to the method:
6-keto PGF1α (a metabolite of PGI2) and TXA2 concentrations was also measured in the affected carotid arteries.

Series [2] deals with rabbit carotid artery thrombus. Kind of series: In vivo model of arterial thrombogenesis (carotid artery, anodal current). As to the method: The anti-thrombotic effect of aspirin with or without PC was then evaluated in an in vivo model of arterial thrombogenesis. According to the protocol (B24), the left carotid artery of an anesthetized rabbit was subjected to anodal current to the point where mean carotid blood flow velocity was […] control values, which corresponds to 50% occlusion of the vessel by the formed thrombus. At this point the current was discontinued and the test drugs intravenously administered as blood flow was monitored over the next 2-3 hours. It can be appreciated from FIG. 14A that carotid artery blood flow velocity dropped to zero (indicative of complete thrombus occlusion of the vessel) in <60 min in control rabbits treated with either saline or phospholipid alone (mean time until closing=40±17).

Series [3] relates to vascular (endothelial) PGI2, abdominal aorta. Kind of series: Ex vivo 6-keto PGF1α production by abdominal aorta. The format is in vivo, rat. Particulars: 20 mg/kg ASA intragastric, 1 hr, incubated with AA; vs control; FIG. 13B. Here is the method: FIG. 13B graphically depicts the effect of intragastric administration to rats of 20 mg/kg ASA alone or complexed with DPPC on 6KPGF1a production by abdominal aorta. After 1 hr the aorta was removed and each aorta ring was incubated at […] for 10 min in Tris-HCl buffer containing 25 mM AA. 6KPGF1a was measured by RIA. *=p<0.050 vs ASA; **=p<0.001 vs saline; n=4;
This ex vivo approach was then used to measure vascular (endothelial) PGI2. Abdominal aorta excised one hour after drug administration was evaluated for its ability to produce 6-keto PGF1α (a stable metabolite of PGI2) by incubating it with arachidonic acid (AA, 25 mM). […] It is, therefore, possible to achieve selective inhibition of platelet cyclooxygenase and preserve vascular prostacyclin biosynthesis by the administration of PC-aspirin.

The test system of series [4] is fasted Sprague Dawley rats. Kind of series: Acetaminophen liver injury, plasma AST. The format is in vivo, rat. Particulars: acetaminophen 800 mg/kg oral, 24 hrs, P35 SB 1:2 wt ratio, vs saline; FIG. 15. As to the method:
FIG. 15 graphically depicts data relating to liver injury in rats, as indicated by elevations in the plasma levels of the enzyme aspartate transaminase (AST), 24 hours after fasted rats are orally administrated acetaminophen (800 mg/kg) alone or in combination with P35SB at wt. ratios of 1:1 and 1:2.

The subject of series [5] is rats' inflamed paw. Briefly: Pain threshold of CFA-inflamed hindpaw (Randall-Sellito technique). The format is in vivo, rat. Particulars: 2 h; for pain pressure threshold of inflamed paw (analgesic activity): lecithin oil 1:1. As to the method:
A previously described method was then used to evaluate the anti-inflammatory/analgesic activity of the NSAID-lecithin formulations (in comparison to the NSAIDs alone). This was accomplished be injecting 0.1 ml of Complete Freund's Adjuvant (CFA) into the left hindpaw of rats to induce an acute inflammatory response. […] The results are depicted in FIGS. 4-6.

Series [6] has as its system TXB2 production in rat platelets. Briefly: Ex vivo TXB2 production in platelets after intragastric dosing. The conditions noted are these: 20 mg/kg intragastric, 30 min, aggregation induced by arachidonic acid; FIG. 13A. Here is the method: FIGS. 13A&B graphically depicts Concentration of TXB2 in rat platelets, 30 min after oral administration of saline, DPPC, ASA (20 mg/kg), or ASA complexed with DPPC. PRP was prepared and aggregation induced by AA (2 mM). TXB2 was measured by RIA. The results expressed as mean±SEM; n=3. *=p<0.050 vs ASA—Abbreviations: DPPC=dipalmitoylphosphatidylcholine; AA=arachidonic acid; pRP=platelet rich plasma; TXB=thromboxane;
Ex vivo animal studies of the effects of phospholipid-aspirin complex (containing equimolar concentration of the two agents) on the ability to produce TXA2 and PGI2 in platelets and vascular tissue respectively were invesitaged. Rats were intragastrically administered either unmodified or DPPC-associated aspirin (20 mg/kg dose), and after 30 minutes, blood was drawn, platelet-rich plasma was prepared, and aggregation was induced by arachidonic acid.

Series [7] relates to mucosal COX activity. Particulars: aspirin subcutaneously or intragastrically; cited from earlier work.
The subject of series [8] is fasted rats. Kind of series: Gastric lesions after intragastric aspirin followed by HCl challenge. Particulars: aspirin 18 mg/kg, 0.6 N HCl 45 min later, ASA:lecithin oil 1:0.5, 1:1, 1:2, FIG. 1. The class given is in vivo, rat. Here is the method:
One preferred embodiment of this formulation is a lecithin oil based PC-NSAID composition, which has been tested for GI toxicity. The three formulations that were tested include lecithin oils combined with aspirin, indomethacin and ibuprofen. In this study, aspirin was combined with Phosal® 35 SB, a lecithin oil, marketed by Phospholipid GmbH (Cologne, Germany), that is constituted of soy lecithin-derived components in sunflower oil. More particularly, Phosal® 35 SB lecithin oil contains about 33-40 wt. % phosphatidylcholine (PC, not including lyso-phosphatidylcholine), about 26-31 wt. % triglycerides, about 8-13 wt. % free fatty acids, and about 5-9 wt. % glycolipids. The aspirin/lecithin oil (Phosal® 35 SB) composition was intragastrically administered to fasted rats at an aspirin dose of 18 mg/kg, where the NSAID:lecithin oil weight ratio was systematically varied from 1:0.5, to 1:1, to 1:2. In addition, other groups of rats received an equivalent dose of aspirin in the absence of the lecithin oil, or an equivalent volume of saline. Forty five minutes later all animals were intragastrically challenged with 1 ml of 0.6 N HCl, and 15 min later, the animals were euthanized and their stomachs opened and the gastric lesions scored by an established method.^50-52

Series [9] has as its system Tg2576 mouse. Particulars: cited from earlier work.
Series [10] relates to SCI rats. The conditions noted are these: 25 mg NSAID/kg twice a day. The text has this:
In FIG. 7A, the data was plotted directly as recorded (without normalization), while in FIG. 7B, the data values for each animal are compared to its own baseline preoperative values.
Please note that in this case, a lower number is indicative of analgesic, whereas with the Randall Sellito test higher pain pressure threshold values are indicative of analgesia.

Series [11] relates to fasted rats. Briefly: GI bleeding (hemoglobin in GI effusate) in rats sensitised with L-NAME. The conditions noted are these: intragastric, NSAID:lecithin 1:1, L-NAME. The format is in vivo, rat. As to the method:
Control rats received an equivalent volume of saline. To make the rats more sensitive to the GI damaging effects of the NSAID all rats also were injected with the nitric oxide (NO) synthase inhibitor, L-NAME (20 mg/kg), three times over the 18-20 hr study period, after which the animals were euthanized and the distal 20 cm of the GI tract was flushed with 2 ml of saline, and the effusate collected for hemoglobin analysis—as an index of GI bleeding.

Where only a bound is given, the exact number is not on record here.

For `CCCCCCCCCCCCCCCC(=O)OC[C@H](COP(=O)([O-])OCC[N+](C)(C)C)OC(=O)CCCCCCCCCCCCCCC` [DPPC, dipalmitoylphosphatidylcholine], in [1], the “PGI2 to TXA2 ratio in affected carotid arteries” value is reported as “improved slightly”. In addition, the “time until blood flow velocity dropped to zero (complete occlusion)” value in [2] (control rabbits treated with saline or phospholipid alone, FIG. 14A) was less than 60 min. The “mean time until closing” value in series [2] (control rabbits, saline or phospholipid alone (pooled), in min) worked out at 40±17. Moreover, the “6-keto PGF1α production by abdominal aorta” value in series [3] was “no effect”.
`CC(=O)Nc1ccc(O)cc1` [Tylenol, acetaminophen]: the “plasma aspartate transaminase (AST), liver injury” value in series [4] is given as “significantly elevated”.
Take `CC(=O)Oc1ccccc1C(=O)O` [aspirin]: the “PGI2 to TXA2 ratio in affected carotid arteries” value in series [1] is on record as “improved slightly”. The “pain threshold of affected paw (analgesic activity)” value in series [5] (aspirin 10 mg/kg intragastric, all weight ratios tested, FIG. 4) was “modest ability to increase the pain threshold”. Also, in series [6], the “TXB2 production in platelets” value is “reduction in TXB2”. Moreover, the “time to vessel occlusion by thrombus” value in series [2] (2.5 mg/kg aspirin i.v., FIG. 14A) was no more than 61 ± 15 min. In [2] (aspirin 5-20 mg/kg i.v., 2-3 hr experiment (data not shown)), the vessel occlusion entry is “no vessel occlusion”. In addition, the “inhibition of mucosal COX activity” value in [7] was greater than 90%. Moreover, the “6-keto PGF1α production by abdominal aorta” value in [3] is on record as “significantly inhibited”. The gastric lesions entry in [8] is recorded as “high number of gastric lesions”.
As for `CC(C)Cc1ccc(C(C)C(=O)O)cc1` (centres unmarked) [ibuprofen], the “amyloid-plaques, dystrophic neurites and activated microglia” value in [9] was “reduce numbers of amyloid-plaques, dystrophic neurites and activated microglia”. Also, the “pain pressure threshold of inflamed paw (analgesic activity)” value in [5] (ibuprofen 25 mg/kg intragastric, FIG. 5) was “modest though non-significant, ability to increase the pain pressure threshold”. In series [10] (6 week period, FIG. 9), the body weight gain entry is reported as “do not gain weight”. For the same molecule, the “pain pressure threshold (hyperalgesia), Randall Sellito” value in series [10] (6 weeks after SCI, FIGS. 7A, 7B) is “hyperalgesia due to SCI was not seen”. The GI bleeding entry in [11] (ibuprofen 100 mg/kg, FIG. 3) was “modest increase in GI bleeding”.
For `COc1ccc2c(c1)c(CC(=O)O)c(C)n2C(=O)c1ccc(Cl)cc1` [indomethacin], in [5] (indomethacin 4 mg/kg intragastric, FIG. 6), the “pain pressure threshold of inflamed paw (analgesic activity)” value is on record as “modest though non-significant, ability to increase the pain pressure threshold”. For the same molecule, the GI bleeding result in series [11] (indomethacin 10 mg/kg, FIG. 2) is “severe increase in GI bleeding”.
